Laboratory results: patent publication US20140135359A1, “METHODS OF DESIGNING, PREPARING, AND USING NOVEL PROTONOPHORES” (priority 2012, published 2014)
Like-named read-outs stand apart in the source and are kept apart here.

Tests used:
[1] = tested on: isolated rat liver mitochondria; experiment: Uncoupling activity: increase in basal (state 4) oxygen consumption by oxygraphy; format: biochemical; settings: for uncoupling activity: result in words; for Measured Uncoupling (% uncoupling ± SEM @ 100 μM): Table 1A, relative to ADP-stimulated respiration = 100%
[2] = tested on: isolated rat liver mitochondria; experiment: Residual functional capacity / inhibitory effect on ADP-stimulated (state 3) oxygen consumption; format: biochemical; settings: for inhibition of ADP-stimulated oxygen consumption: screening at 100 μM
[3] = test conc. 25 μM, increase in basal (state 4) oxygen consumption as % of average ADP-stimulated (state 3) rate in vehicle-treated mitochondria
[4] = test conc. 100 μM, increase in basal (state 4) oxygen consumption as % of average ADP-stimulated (state 3) rate in vehicle-treated mitochondria
[5] = test conc. 25 μM, functional capacity (state 3 minus state 4 rate) as % of vehicle-treated mitochondria
[6] = test conc. 100 μM, functional capacity (state 3 minus state 4 rate) as % of vehicle-treated mitochondria
[7] = Suppl. Table 1, 100 μM, 2-3 mitochondrial preparations

Compound | Uncoupling (%) [1, 4] | Inhibitory effect (%) ([2]; test conc. 100 μM) | Residual capacity (%) [2, 6] | Measured Uncoupling Activity (% uncoupling ± SEM @ 100 μM) [1, 7] | further results
Oc1ccc(C=Cc2cc(O)cc(O)c2)cc1 [resveratrol (trans)] | 2 ± 0% | 62% | 36 ± 4% |  | Uncoupling (%) [1, 3]: 0 ± 0%; Inhibitory effect (%) ([2]; test conc. 25 μM): 29%; Residual capacity (%) [2, 5]: 71 ± 9%
COc1cc(C2Oc3cc([C@H]4Oc5cc(O)cc(O)c5C(=O)[C@@H]4O)ccc3OC2CO)ccc1O (stereo partly drawn) [silibinin (A and B), silibinin] | 5 ± 1% | 73% | 22 ± 5% | 5 ± 1 % uncoupling | inhibition of ADP-stimulated oxygen consumption [2]: inhibitory activity
O=c1c(O)c(-c2cc(O)c(O)c(O)c2)oc2cc(O)cc(O)c12 [myricetin] | 11 ± 0% | 43% | 46 ± 3% | 11 ± 0 % uncoupling | Uncoupling (%) [1, 3]: 6 ± 3%; Inhibitory effect (%) ([2]; test conc. 25 μM): 28%; Residual capacity (%) [2, 5]: 66 ± 2%
COc1ccc(-c2coc3cc(O)cc(O)c3c2=O)cc1 [biochanin A] | 103 ± 22% | 0% | 0 ± 0% | 103 ± 22 % uncoupling | uncoupling activity ([1]; 100 μM): complete uncoupling; Measured Uncoupling (% uncoupling ± SEM @ 100 μM) ([1]; 100 μM): >100 % uncoupling; Uncoupling (%) [1, 3]: 75 ± 36%; Inhibitory effect (%) ([2]; test conc. 25 μM): 0%; Residual capacity (%) [2, 5]: 27 ± 27%
O=C(O)/C=C/c1ccc(O)c(O)c1 [caffeic acid] | 0 ± 1% | 21% | 79 ± 9% | 0 ± 1 % uncoupling | 
O=c1c(O)c(-c2ccc(O)cc2O)oc2cc(O)cc(O)c12 [morin] | 1 ± 0% | 60% | 39 ± 3% | 1 ± 0 % uncoupling | inhibition of ADP-stimulated oxygen consumption [2]: inhibitory activity
Oc1ccccc1 [phenol] |  |  |  |  | Measured Uncoupling Activity (% uncoupling ± SEM @ 100 μM) [1]: 0 ± 0 % uncoupling; Uncoupling (%) [1]: 0 ± 0%; Inhibitory effect (%) [2]: 4%; Residual capacity (%) [2]: 96 ± 4%
COc1ccc(-c2cc(=O)c3c(O)cc(O)c(-c4cc(-c5cc(=O)c6c(O)cc(OC)cc6o5)ccc4OC)c3o2)cc1 [sciadopitysin] | −1 ± 0% | 2% | 98 ± 0% | −1 ± 0 % uncoupling | 
O=c1c(-c2ccc(O)cc2)coc2cc(O)cc(O)c12 [genistein] | 74 ± 4% | 6% | 20 ± 0% | 74 ± 4 % uncoupling | Measured Uncoupling (% uncoupling ± SEM @ 100 μM) ([1]; 100 μM): 74 ± 4 % uncoupling; Uncoupling (%) [1, 3]: 8 ± 0%; Inhibitory effect (%) ([2]; test conc. 25 μM): 15%; Residual capacity (%) [2, 5]: 77 ± 1%
COc1cc(C=O)ccc1O [vanillin] | 0 ± 1% | 26% | 74 ± 16% | 0 ± 1 % uncoupling | 
C(=C\c1ccccc1)/c1ccccc1 [trans-stilbene] |  |  |  | −1 ± 1 % uncoupling | 
Oc1ccc(C=Cc2cc(O)cc(O)c2)cc1 [resveratrol] |  |  |  |  | inhibition of ADP-stimulated oxygen consumption [2]: inhibitory activity
O=C(O[C@@H]1Cc2c(O)cc(O)cc2O[C@@H]1c1cc(O)c(O)c(O)c1)c1cc(O)c(O)c(O)c1 [epigallocatechin gallate] |  |  |  |  | uncoupling activity ([1]; 100 μM): devoid of activity
Oc1cc(O)cc(/C=C/c2ccc(O)c(O)c2)c1 [trans-piceatannol] |  |  |  | 5 ± 1 % uncoupling | 
C(=Cc1ccccc1)c1ccccc1 [stilbene] |  |  |  |  | uncoupling activity ([1]; 100 μM): inactive
Oc1ccc(/C=C/c2cc(O)cc(O)c2)cc1 [trans-resveratrol] |  |  |  | 2 ± 0 % uncoupling | 
CC(=O)c1ccc(O)cc1 [para-acetylphenol] |  |  |  |  | uncoupling activity ([1]; 100 μM): no appreciable activity
